Data taken from ChEMBL document CHEMBL5528067, “From Synergy to Monotherapy: Discovery of Novel 2,4,6-Trisubstituted Triazine Hydrazone Derivatives with Potent Antifungal Potency In Vitro and In Vivo” (J Med Chem, 2024).
Converted amounts (≈) assume the structure as drawn. The source made the active and inactive calls. No cut-off for these calls is given here.

Key:
Candida albicans [1] = assay: Effect on ECE1 gene expression in Candida albicans SC5314 at 4 to 8 microg/ml by real time RT-PCR analysis; format: functional; conditions: dose 4-8 µg/ml
[Candida] auris = Antifungal activity against FCZ-resistant Candida auris 919 assessed as growth inhibition measured after 48 hrs incubation by CLSI based micro-dilution broth method; format: functional; conditions: Candidozyma auris
Candida albicans [2] = assay: Upregulation of SAP2 gene expression in Candida albicans SC5314 assessed as fold increase at 4 microg/ml by real time RT-PCR analysis relative to control; format: functional; conditions: dose 4.0 µg/ml
Candida albicans [3] = assay: Effect on of BRG1 gene expression in Candida albicans SC5314 at 4 to 8 microg/ml by real time RT-PCR analysis; format: functional; conditions: dose 4-8 µg/ml
Candida albicans [4] = assay: Antibiofilm activity against Candida albicans SC5314 assessed as biofilm disruption at 32 microg/ml incubated for 24 hrs by XTT/menadione reduction assay relative to control; format: functional; parameters: scale not given: the % may be the effect or the level left; conditions: dose 32 µg/ml
Candida albicans [5] = assay: Suppression of ALS3 gene expression in Candida albicans SC5314 at 4 to 8 microg/ml by real time RT-PCR analysis; format: functional; conditions: dose 4-8 µg/ml
Candida albicans [6] = assay: Suppression of SAP6 gene expression in Candida albicans SC5314 assessed as fold increase at 8 microg/ml by real time RT-PCR analysis relative to control; format: functional; conditions: dose 8.0 µg/ml
Cryptococcus neoformans = assay: Antifungal activity against Cryptococcus neoformans 32609 assessed as growth inhibition measured after 48 hrs incubation by CLSI based micro-dilution broth method; format: functional
Candida albicans [7] = assay: Synergistic antifungal activity against FCZ-resistant Candida albicans strain 904 assessed as fractional inhibitory concentration index measured after 48 hrs in presence of FCZ by CLSI based micro-dilution broth method; format: functional
Candida albicans [8] = assay: Antifungal activity against FCZ-resistant Candida albicans strain 901 assessed as growth inhibition in presence of fluconazole measured after 48 hrs incubation by CLSI based micro-dilution broth method; format: functional
Candida albicans [9] = assay: Suppression of ALS1 gene expression in Candida albicans SC5314 at 4 to 8 microg/ml by real time RT-PCR analysis; format: functional; conditions: dose 4-8 µg/ml
Candida albicans [10] = assay: Antifungal activity against FCZ-resistant Candida albicans strain 904 assessed as growth inhibition in presence of fluconazole measured after 48 hrs incubation by CLSI based micro-dilution broth method; format: functional
Candida albicans [11] = assay: In vivo antifungal activity against Candida albicans SC5314 infected in po dosed C57BL/6J mouse assessed as reduction in fungal burden in kidney treated once a day for 2 days; format: functional, organism-based; conditions: dose 5-10 mg/kg, time 2.0 day
[12] = Metabolic stability in mouse liver microsomes assessed as half life measured upto 60 mins by LC-MS/MS analysis; format: ADME, Microsome
Candida albicans [13] = assay: Induction of cell wall component change in Candida albicans SC5314 assessed as decrease in mannan content by measuring ConA fluorescence intensity at 4 microg/ml measured after 12 hrs by confocal laser-scanning microscopy; format: functional, organism-based; conditions: dose 4.0 µg/ml
Candida albicans [14] = assay: Induction of cell wall component change in Candida albicans SC5314 assessed as swollen inner beta glucan layer at 4 microg/ml measured after 12 hrs by transmission electron microscopy; format: functional, organism-based; conditions: dose 4.0 µg/ml
Candida albicans [15] = assay: Antifungal activity against FCZ-resistant Candida albicans SC5314 assessed as reduction in CFU at 0.5 to 2 microg/ml measured at 24 hrs incubation by time kill assay (reference value: 5 log10 CFU/ml); format: functional; conditions: dose 0.5-2 µg/ml
Candida parapsilosis = assay: Antifungal activity against Candida parapsilosis 22019 assessed as growth inhibition measured after 48 hrs incubation by CLSI based micro-dilution broth method; format: functional; conditions: Lodderomyces parapsilosis
Candida albicans [16] = assay: Effect on of UME6 gene expression in Candida albicans SC5314 at 4 to 8 microg/ml by real time RT-PCR analysis; format: functional; conditions: dose 4-8 µg/ml

Q: For `O=[N+]([O-])c1ccc(O)c(/C=N/Nc2nc(NCc3ccc(F)cc3)nc(NCc3ccc(F)cc3)n2)c1`, which Activity (Candida albicans [1]) is on record?
A: inactive

Q: And the MIC80 ([Candida] auris)?
A: 16 µg/mL (≈ 31.6 µM)

Q: What about the fold change (FC) (Candida albicans [2]) of the same compound?
A: 1.86

Q: And the Activity (Candida albicans [3])?
A: inactive

Q: And the Activity (Candida albicans [4])?
A: <30%

Q: And the Activity (Candida albicans [5])?
A: Active

Q: And the fold change (FC) (Candida albicans [6])?
A: 2.99

Q: And the MIC80 (Cryptococcus neoformans)?
A: 1 µg/mL (≈ 1.97 µM)

Q: And the “fractional inhibitory concentration index (FICI)” value (Candida albicans [7])?
A: 0.38

Q: And the MIC80 (Candida albicans [8])?
A: 0.25 µg/mL

Q: What about the Activity (Candida albicans [9]) of the same compound?
A: Active

Q: And the MIC80 (Candida albicans [10])?
A: 0.25 µg/mL

Q: And the Activity (Candida albicans [11])?
A: Dose-Dependent Effect

Q: What about the half-life [12] of the same compound?
A: 55.8 min

Q: And the Activity (Candida albicans [13])?
A: Active

Q: And the Activity (Candida albicans [14])?
A: Active

Q: What about the Activity (Candida albicans [15]) of the same compound?
A: 3.2 log10CFU/ml

Q: What about the MIC80 (Candida parapsilosis) of the same compound?
A: 2 µg/mL (≈ 3.95 µM)

Q: And the Activity (Candida albicans [16])?
A: inactive
